Data taken from publication PMC7797213, “Vascular effects of serelaxin in patients with stable coronary artery disease: a randomized placebo-controlled trial” (Cardiovascular Research, 2020).

Assays:
Format in all cases: in vivo, human
NT-proBNP = assay: Plasma biomarker NT-proBNP; settings: for NT-proBNP, geo-mean (95% CI): plasma
Protocol: Biomarkers reported include: N-terminal pro-brain natriuretic peptide (NT-proBNP), high-sensitivity troponin T (hsTnT) measured to assess myocardial safety; cystatin C measured to access renal function; the biologically active form of endothelin-1 (1–21), measured to assess vascular function. Venous blood samples were collected at 0 (pre-dose), 24, 48, and 54 h, Day 30, and Day 180. NT-proBNP, hsTnT, and cystatin C samples were collected in EDTA tubes while endothelin-1 samples were collected in EDTA tubes containing aprotinin. Plasma was immediately frozen at −70°C pending analysis in complete patient sets. Commercial biomarker kits were as follows: hsTnT from Roche Diagnostics GmbH, Germany; cystatin C from Gentian, Moss, Norway; and active endothelin-1 […] from Biomedica Medizinprodukte, Vienna, Austria.
For the biomarker analyses, baseline was defined as the pre-dose assessment on Day 1. Raw values as well as changes from baseline were summarized by treatment and time. Descriptive statistics included geometric mean and 95% CI. For geometric means of change from baseline, a ratio to baseline was used to determine percentage change by first calculating in the log domain and then back transforming using exponentiation.
Baseline corresponds to the value at day 1 pre-dose. For change from baseline, geometric mean and its CI are calculated for the value (post) to baseline ratio.

[1] = Immunogenicity: serum anti-serelaxin antibodies; settings: Day 1 (baseline) and Day 30, all patients
Protocol: Blood was collected on Day 1 (baseline) and post-dose on Day 30 for assessment of immunogenicity. Serum anti-serelaxin antibody concentrations were evaluated using a validated four-tiered assay approach for antibody screening, confirmation, titration, and neutralizing antibody detection, when applicable.

[2] = tested on: patients with stable coronary artery disease; assay: CMR left and right ventricular volumes and ejection fraction
From the text: A standardized CMR protocol was acquired on 1.5 T (Siemens Avanto) or 3.0 T (Siemens Skyra and Verio) magnetic resonance imaging (MRI) scanners. The CMR protocol included standard localizers, long- and short-axis cine acquisitions, stress and rest first-pass perfusion, and late gadolinium enhancement (LGE) imaging as previously described.[24] For perfusion imaging, a saturation recovery prepared fast gradient echo sequence was used to acquire dynamic contrast-enhanced CMR during adenosine stress (140–280 µg/kg/min for 3 min) and rest, during first-pass of the IV administered contrast agent (Gadovist, 0.05 mmol/kg, 5 mL/s), followed by 20 mL saline injection (5 mL/s). Three short-axis planes through the left ventricle (basal, mid-ventricular, and apical) were obtained. […]
CMR image collection, blinding, and handling were managed by an independent imaging contract-research organization (CRO; VirtualScopics, Inc., Rochester, NY, USA). The CMR quantitative analyses were performed by blinded academic readers with >3 years of CMR experience (D.C., A.R., and C.B.). […] Global MPR was calculated from the ratio of global MBF evaluated at stress and at rest (MPR = stress MBF/rest MBF). Global MBF was calculated by averaging the MBF (mL/g/min) for basal, mid, and apical short-axis left ventricular slices. […] The presence or absence of myocardial scar was qualitatively assessed on the LGE images.

[3] = tested on: patients with stable coronary artery disease; assay: Adverse events and serious adverse events
Protocol: All adverse events (AEs) were recorded along with investigator-reported seriousness, intensity, and relationship to study drug.

[4] = tested on: patients with stable coronary artery disease; assay: Applanation tonometry-derived augmentation index (AIx); settings: for AIx, absolute value: mean ± SD; for AIx, adjusted mean difference serelaxin versus placebo / AIx, change from baseline (adjusted mean): repeated measures ANCOVA
Protocol: (30 μg/kg/day) or matching placebo, using a computerized randomization system involving concealed treatment arms. The co-primary endpoints were the change from baseline in global myocardial perfusion reserve (MPR) measured by quantitative perfusion cardiac magnetic resonance (CMR) imaging and the change from baseline in augmentation index (AIx) measured by applanation tonometry. The primary endpoints of MPR and AIx were assessed at baseline and 47 h post-commencement of the infusion (Figure 1).
The applanation tonometry assessments were performed by blinded operators. Augmentation index [AIx = (augmentation pressure/pulse pressure) × 100], and carotid-femoral PWV were measured by applanation tonometry (Sphygmocor®, AtCor Medical, Australia) at a proximal (carotid artery) and a distal (femoral artery) site of the body, utilizing R-wave gated determination of the time interval between the two measurement points. An averaged carotid pressure waveform (from a 10 s recording) was converted into a corresponding central waveform using a validated transfer function (SphygmoCor®, AtCor, Australia).[27]^,[28]

Serelaxin
NT-proBNP change from baseline, geometric mean ratio to baseline (95% CI) (NT-proBNP; 24 h, n=27): 0.89 (0.77, 1.02) | NT-proBNP change from baseline, geometric mean ratio to baseline (95% CI) (NT-proBNP; 48 h, n=28): 1.03 (0.79, 1.34) | NT-proBNP change from baseline, geometric mean ratio to baseline (95% CI) (NT-proBNP; 54 h, n=27): 1.36 (1.06, 1.75) | NT-proBNP change from baseline, geometric mean ratio to baseline (95% CI) (NT-proBNP; Day 30, n=29): 1.02 (0.80, 1.29) | NT-proBNP change from baseline, geometric mean ratio to baseline (95% CI) (NT-proBNP; Day 180, n=29): 1.17 (0.86, 1.58) | NT-proBNP, geo-mean (95% CI) (NT-proBNP; 0 h (pre-dose baseline), n=29): 87.0 (60.2, 125.8) pg/mL | NT-proBNP, geo-mean (95% CI) (NT-proBNP; 24 h, n=27): 74.7 (51.9, 107.5) pg/mL | NT-proBNP, geo-mean (95% CI) (NT-proBNP; 48 h, n=28): 86.8 (57.7, 130.5) pg/mL | NT-proBNP, geo-mean (95% CI) (NT-proBNP; 54 h, n=27): 117.1 (79.9, 171.7) pg/mL | NT-proBNP, geo-mean (95% CI) (NT-proBNP; Day 30, n=29): 88.4 (60.3, 129.7) pg/mL | NT-proBNP, geo-mean (95% CI) (NT-proBNP; Day 180, n=29): 101.6 (69.9, 147.8) pg/mL | Anti-serelaxin antibody status [1]: anti-serelaxin antibody negative | Left and right ventricular volumes and ejection fractions, change from baseline compared with placebo ([2]; baseline to 47 h, CMR): no statistically significant changes | Left ventricular ejection fraction, mean value ([2]; remained in the normal range, no significant changes with serelaxin treatment): 63% | Patients discontinuing the study due to hypotensive events ([3]; in vivo): No patient | AEs considered causally related to serelaxin ([3]; investigator-reported relationship): None | Angina pectoris (AE by preferred term) ([3]; safety set n=30): 1 (3) n (%) | Angina unstable (AE by preferred term) ([3]; safety set n=30): 1 (3) n (%) | Blood creatinine increased (AE by preferred term) ([3]; safety set n=30): 1 (3) n (%) | Dizziness (AE by preferred term) ([3]; safety set n=30): 2 (7) n (%) | Dyspnoea (AE by preferred term) ([3]; safety set n=30): 2 (7) n (%) | Haematocrit decreased (AE by preferred term) ([3]; safety set n=30): 1 (3) n (%) | Haemoglobin decreased (AE by preferred term) ([3]; safety set n=30): 2 (7) n (%) | Headache (AE by preferred term) ([3]; safety set n=30): 2 (7) n (%) | Musculoskeletal pain (AE by preferred term) ([3]; safety set n=30): 2 (7) n (%) | Presyncope (AE by preferred term) ([3]; safety set n=30): 0 (0) n (%) | Subjects with at least one AE ([3]; safety set n=30, 48 h IV infusion 30 µg/kg/day, follow-up to Day 180): 17 (57) n (%) | Deaths ([3]; study period to Day 180): No deaths | AIx, absolute value ([4]; 0 h (pre-dose baseline), n=25): 25.81 ± 7.70 (25) % | AIx, adjusted mean difference serelaxin versus placebo ([4]; 2 h): -2.12% | AIx, change from baseline (adjusted mean) ([4]; 2 h, n=23): -4.09% | AIx, absolute value ([4]; 2 h post-dose, n=23): 22.17 ± 10.09 (23) % | AIx, adjusted mean difference serelaxin versus placebo ([4]; 6 h): -2.88% | AIx, change from baseline (adjusted mean) ([4]; 6 h, n=24): -3.28% | AIx, absolute value ([4]; 6 h post-dose, n=24): 22.96 ± 6.95 (24) % | AIx, adjusted mean difference serelaxin versus placebo ([4]; 24 h): –0.84% | AIx, change from baseline (adjusted mean) ([4]; 24 h, n=24): -0.77% | AIx, absolute value ([4]; 24 h post-dose, n=24): 25.08 ± 8.10 (24) % | AIx, adjusted mean difference serelaxin versus placebo ([4]; 47 h): 3.45% | AIx, change from baseline (adjusted mean) ([4]; 47 h, n=23): 3.49% | AIx, absolute value ([4]; 47 h post-dose, n=23): 29.57 ± 9.75 (23) % | AIx, adjusted mean difference serelaxin versus placebo ([4]; 50 h): 3.25% | AIx, change from baseline (adjusted mean) ([4]; 50 h, n=22): -0.76% | AIx, absolute value ([4]; 50 h post-dose, n=22): 24.89 ± 12.50 (22) % | AIx, adjusted mean difference serelaxin versus placebo ([4]; 54 h): -0.98% | AIx, change from baseline (adjusted mean) ([4]; 54 h, n=22): -1.74% | AIx, absolute value ([4]; 54 h post-dose, n=22): 24.70 ± 10.62 (22) % | AIx, absolute value ([4]; Day 30, n=25): 24.98 ± 9.05 (25) % | AIx, adjusted mean difference serelaxin versus placebo ([4]; Day 30): -1.76% | AIx, change from baseline (adjusted mean) ([4]; Day 30, n=25): -0.98% | AIx, absolute value ([4]; Day 180, n=24): 26.15 ± 8.97 (24) % | AIx, adjusted mean difference serelaxin versus placebo ([4]; Day 180): -0.05% | AIx, adjusted mean difference serelaxin versus placebo ([4]; Day 180, listed as serelaxin): −0.05% | AIx, change from baseline (adjusted mean) ([4]; Day 180, n=24): 0.23%
